# Entries after “also recorded” stand apart in the source; their conditions may differ.
# Tests used:
# [1] = molecular target: T1, ∆Impα3 (Impα3 without IBB, residues 64-521) (Homo sapiens, UniProt O00629); assay: Isothermal titration calorimetry, binding to ∆Impα3; details: Tris 50 mM pH 8, 298 K
# T1 construct: codon-optimized, His-tagged ∆Impα3 (residues 64-521) were carried out using BL21 (DE3) cells; His-tag; made in house; host or cells: E. coli BL21 (DE3)
# T1 sequence (O00629 64-521): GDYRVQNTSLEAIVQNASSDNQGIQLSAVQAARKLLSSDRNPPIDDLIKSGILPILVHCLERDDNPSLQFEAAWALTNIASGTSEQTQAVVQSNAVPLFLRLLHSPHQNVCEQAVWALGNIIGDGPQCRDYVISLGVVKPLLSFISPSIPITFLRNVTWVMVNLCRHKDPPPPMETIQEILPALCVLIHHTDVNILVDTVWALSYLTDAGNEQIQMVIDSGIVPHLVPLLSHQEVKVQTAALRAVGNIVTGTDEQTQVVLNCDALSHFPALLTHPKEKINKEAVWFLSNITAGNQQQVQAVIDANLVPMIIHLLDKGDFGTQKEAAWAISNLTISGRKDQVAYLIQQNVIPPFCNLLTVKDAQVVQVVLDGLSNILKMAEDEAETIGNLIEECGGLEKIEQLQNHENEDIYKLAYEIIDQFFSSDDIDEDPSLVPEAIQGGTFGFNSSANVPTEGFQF
# Source text: Figure 4 Binding of NLS-NUNPR1L to both importin species: (A) Titration curve monitoring the changes of Impα3 fluorescence at 340 nm in the presence of NLS-NUPR1L, after excitation at 280 nm. (B) Titration curve monitoring the changes of ∆Impα3 fluorescence at 340 nm in the presence of NLS-NUPR1L, after excitation at 280 nm. […] (C) Calorimetric binding isotherms (ligand normalized heat effect per injection as a function of the ligand/protein molar ratio) for the interaction of NLS-NUPR1L with Impα3 (left) and ∆Impα3 (right) are shown, with the thermogram (raw thermal power data as a function of time) at the top of each panel. Binding parameters were estimated by non-linear least squares regression data analysis of the interaction isotherms applying a single ligand binding site model implemented in Origin 7.0. (OriginLab, Northampton, MA, USA).
# The experimental set-up and data processing of ITC experiments have been described previously. […] The temperature for all experiments was 298 K. The experiments were analyzed applying a model considering a single ligand binding site (1:1 stoichiometry for the NLS-NUPR1L/Impα3 (or ∆Impα3) interaction) implemented in Origin 7.0 (OriginLab, Northampton, MA, USA).
# Impα3 = details: 35 μM peptide, pH 7.2, 50 mM deuterated Tris, 1-1 echo sequence
# Method: The NMR experiments were acquired at 283 K on a Bruker Avance spectrometer (Bruker GmbH, Karlsruhe, Germany), equipped with a triple resonance probe and z-pulse field gradients. All experiments with NLS-NUPR1L were carried out at pH 7.2, 50 mM deuterated Tris buffer (not corrected for isotope effects). The spectra were calibrated with TSP ((trimethylsilyl)-2,2,3,3-tetradeuteropropionic acid), by considering pH-dependent changes of its chemical-shifts; probe temperature was calibrated with methanol.
# Measurements of the T2 (transverse relaxation time) provide a convenient method to determine the molecular mass of a macromolecule, as the correlation time, τc, is approximately equal to 1/(5 × T2). We measured the T2 of one of the indole protons (Section 2.2.1) for NLS-NUPR1L (at 35 μM concentration) in isolation and in the presence of Impα3 (at a final concentration of 7 μM) with the 1-1 echo sequence. The calculation of the T2 was carried out as described.
# [2] = Conformation of isolated peptide by fluorescence, far-UV CD and NMR; assay type: physicochemical
# Method: Appropriate blank corrections were made in all spectra.
# All spectra were corrected by subtracting the corresponding baseline.
# An amount of 128 scans was acquired with 16 K acquisition points for the homonuclear 1D-^1H-NMR spectrum, and using a peptide concentration of 1.0–1.2 mM. Water signal was suppressed using the WATERGATE sequence. The spectrum was processed with Bruker TopSpin 2.1 (Bruker GmbH, Karlsruhe, Germany), after zero-filling and apodization with an exponential window.
# Two-dimensional spectra were acquired in each dimension in the phase-sensitive mode using the time-proportional-phase incrementation technique (TPPI) and a spectral width of 7801.69 Hz; the final concentration of the NLS-NUPR1L was the same as that used in the 1D experiments. Standard TOCSY (Total correlation spectroscopy) (with a mixing time of 80 ms) and NOESY experiments (with a mixing time of 250 ms) were performed by acquiring a data matrix size of 4096 × 512 points. The DIPSI (decoupling in the presence of scalar interactions) spin-lock sequence was used in the TOCSY experiments with 1 s of relaxation time. Typically, 96 scans were acquired per increment in the first dimension, and the residual water signal was removed using the WATERGATE sequence. NOESY spectra were collected typically with 96 scans per increment in the first dimension, with the residual water signal removed again by the WATERGATE sequence, and with 1 s of relaxation time. Data were zero-filled, resolution-enhanced with a square sine-bell window function optimized in each spectrum, baseline-corrected, and processed with the Bruker TopSpin 2.1 software (Bruker GmbH, Karlsruhe, Germany). The ^1H resonances were assigned by standard sequential assignment processes. The chemical shift values of Hα protons in random-coil regions were obtained from tabulated data, corrected by neighbouring residue effects.
substance,measurement,setting,value
Ac-RTRREQALRTNWPAPGGHERKVAQ-NH2 [NLS-NUPR1L],"n, stoichiometry (ITC), ∆Impα3",[1],0.75 ± 0.06
same,"∆H (ITC), ∆Impα3",[1],-2.4 ± 0.5 kcal/mol
same,"T2 of most up-field indole signal, in the presence of Impα3","Impα3; 7 μM Impα3, 283 K",36.7 ms
same,"T2 of most up-field indole signal, isolated peptide",Impα3; 283 K,62.2 ms
same,far-UV CD minimum,"[2]; 298 K, 50 mM phosphate pH 7.0",~ 203 nm
same,fluorescence emission maximum,"[2]; excitation 280 nm, 50 mM phosphate pH 7.0, 298 K",353 nm
same,conformation in aqueous solution,"[2]; fluorescence, far-UV CD and NMR",random-coil conformation; also recorded: disordered in aqueous solution; also recorded: did not have any propensity to acquire helix- or turn-like conformations

# Source: publication PMC7583046, “The Paralogue of the Intrinsically Disordered Nuclear Protein 1 Has a Nuclear Localization Sequence that Binds to Human Importin α3” (International Journal of Molecular Sciences, 2020)
